Test results taken from patent US12171782B2 (priority 2020, dated 2024).

How the values were obtained:
SARS-CoV PLP = SARS-CoV PLP (Severe acute respiratory syndrome coronavirus, UniProt P0C6X7); conditions: cited from earlier work
3CLPro/Mpro of SARS-CoV = 3CLPro/Mpro of SARS-CoV (Severe acute respiratory syndrome coronavirus, UniProt P0C6X7); conditions: cited from earlier work
SARS-CoV N protein = SARS-CoV N protein (Severe acute respiratory syndrome coronavirus, UniProt P59595); conditions: cited from earlier work
Sequence of SARS-CoV N protein (P59595 whole entry, looked up): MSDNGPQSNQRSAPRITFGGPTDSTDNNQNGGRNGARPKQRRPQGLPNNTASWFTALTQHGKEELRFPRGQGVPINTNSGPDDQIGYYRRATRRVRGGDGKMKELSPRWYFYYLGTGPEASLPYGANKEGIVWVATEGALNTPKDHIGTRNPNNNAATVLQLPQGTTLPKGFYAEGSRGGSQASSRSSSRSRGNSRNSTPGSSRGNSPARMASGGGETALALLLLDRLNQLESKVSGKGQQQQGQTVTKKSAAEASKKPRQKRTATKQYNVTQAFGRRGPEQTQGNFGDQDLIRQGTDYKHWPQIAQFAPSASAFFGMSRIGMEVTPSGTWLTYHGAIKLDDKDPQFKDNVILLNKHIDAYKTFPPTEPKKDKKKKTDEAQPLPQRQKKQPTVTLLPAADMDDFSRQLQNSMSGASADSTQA

PLP of SARS-CoV-2 = PLP of SARS-CoV-2 (Severe acute respiratory syndrome coronavirus 2, UniProt P0DTD1); conditions: cited from earlier work
[1] = test system: peripheral blood mononuclear cells (PBMC); assay: MTT cytotoxicity assay in PBMCs; conditions: different concentrations, 24 h (FIG. 17)
[2] = test system: SARS-CoV-2 pseudotyped lentiviral vectors; conditions: blocked entry of pseudotyped lentiviral vectors; cited from earlier work
[3] = biological target: 3CLpro from the first SARS-CoV (Severe acute respiratory syndrome coronavirus, UniProt P0C6X7); conditions: cited from earlier work
[4] = test system: SARS-CoV-2 replicating virus in Vero cells; conditions: virus replication; cited from earlier work
SARS-CoV-2 strain = conditions: plaque reduction neutralization test; read-out: PRNT50; cited from earlier work
common cold = conditions: after 7 days of treatment, 23 mg; placebo 46%; cited from earlier work

Q: With `[Ca+2]` [Ca] as the compound, how does the “effects on the activity of PLP” value (SARS-CoV PLP) read?
A: no effects

Q: For `[Co+2]` [Co], which “effects on the activity of PLP” value (SARS-CoV PLP) is on record?
A: no effects

Q: For `[Mg]` [Mg], which “effects on the activity of PLP” value (SARS-CoV PLP) is on record?
A: no effects

Q: Which “effects on the activity of PLP” value (SARS-CoV PLP) does the source give for `[Mn]` [Mn] here?
A: no effects

Q: Which “effects on the activity of PLP” value (SARS-CoV PLP) does the source give for `[Ni]` [Ni] here?
A: no effects

Q: What does the source list for `[Zn+2]` [Zn^2+]?
A: Ki (3CLPro/Mpro of SARS-CoV): 1100 nM; IC50 (SARS-CoV PLP): 1300 nM

Q: Which IC50 (SARS-CoV N protein) does the source give for (−)-gallocatechin gallate here?
A: 0.05 µg/mL

Q: For Epigallocatechin-3-gallate [EGCG], which “binding affinity to PLP core structure” value (PLP of SARS-CoV-2) is on record?
A: highest binding affinity

Q: And the cell viability [1]?
A: a decrease in viability

Q: And the IC50 [2]?
A: 2.47 µg/mL

Q: What about the IC50 [3] of the same compound?
A: 73000 nM

Q: What about the “inhibition of the recombinant 3CLpro/Mpro” value [3] of the same compound?
A: over 85%

Q: And the IC50 [4]?
A: 1.73 µg/mL

Q: What about the EC50 (SARS-CoV-2 strain) of the same compound?
A: 200 nM

Q: Which IC50 (SARS-CoV PLP) does the source give for N-ethyl-N-phenyl-dithio-carbamate-Zinc here?
A: 3300 nM

Q: Which subjects asymptomatic (common cold) does the source give for Zinc gluconate here?
A: 86%
